Test results: patent publication US6737383B1, “Herbicidal oxadiazolidines” (priority 1999, dated 2004)

Assays:
[1] = test system: rice; assay: Test B flood test rice; type: in vivo, Oryza sativa
How it was run: (§1)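 Read-out is a visual response score from 0 (no effect) to 10 (complete control), assigned by comparison with untreated controls. Treatment was applied at the 2-leaf stage, and plants stayed in the greenhouse for twelve to sixteen days before scoring.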

[2] = test system: blackgrass; assay: Test B pre/postemergence blackgrass; type: in vivo, Alopecurus myosuroides; settings: for Blackgrass plant response rating: scale of 0 to 10 where 0 is no effect and 10 is complete control
How it was run: (§2)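 Response is a visual 0-to-10 score relative to untreated plants, where 0 means no effect and 10 means complete control, taken twelve to sixteen days after application. Treatments went onto soil at planting and onto foliage of 1- to 4-leaf plants, using a surfactant-containing non-phytotoxic solvent.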

[3] = test system: purple nutsedge; assay: Test B pre/postemergence purple nutsedge; type: in vivo, Cyperus rotundus; settings: for Nutsedge plant response rating: scale of 0 to 10 where 0 is no effect and 10 is complete control
How it was run: as §2

[4] = test system: crabgrass; assay: Test B pre/postemergence crabgrass; type: in vivo, Digitaria sanguinalis; settings: for Crabgrass plant response rating: scale of 0 to 10 where 0 is no effect and 10 is complete control
How it was run: as §2

[5] = test system: bamyardgrass; assay: Test B flood test barnyardgrass; type: in vivo, Echinochloa crus-galli
How it was run: as §1

[6] = test system: velvetleaf; assay: Test B pre/postemergence velvetleaf; type: in vivo, Abutilon theophrasti; settings: for Velvetleaf plant response rating: scale of 0 to 10 where 0 is no effect and 10 is complete control
How it was run: as §2

[7] = test system: surinam grass; assay: Test B pre/postemergence surinam grass; type: in vivo, Brachiaria decumbens; settings: for B. signalgrass plant response rating: scale of 0 to 10 where 0 is no effect and 10 is complete control
How it was run: as §2

[8] = test system: smallflower flatsedge; assay: Test B flood test smallflower flatsedge; type: in vivo, Cyperus difformis
How it was run: as §1

[9] = test system: giant foxtail; assay: Test B pre/postemergence giant foxtail; type: in vivo, Setaria faberii; settings: for Giant foxtail plant response rating: scale of 0 to 10 where 0 is no effect and 10 is complete control
How it was run: as §2

[10] = test system: sugar beet; assay: Test B pre/postemergence sugar beet; type: in vivo, Beta vulgaris; settings: for Sugarbeets plant response rating: scale of 0 to 10 where 0 is no effect and 10 is complete control
How it was run: as §2

[11] = test system: wild oat; assay: Test B pre/postemergence wild oat; type: in vivo, Avena fatua; settings: for Wild oats plant response rating: scale of 0 to 10 where 0 is no effect and 10 is complete control
How it was run: as §2

[12] = test system: cocklebur; assay: Test B pre/postemergence cocklebur; type: in vivo, Xanthium strumarium; settings: for Cocklebur plant response rating: scale of 0 to 10 where 0 is no effect and 10 is complete control
How it was run: as §2

[13] = test system: pigweed; assay: Test B pre/postemergence pigweed; type: in vivo, Amaranthus retroflexus; settings: for Redroot pigweed plant response rating: scale of 0 to 10 where 0 is no effect and 10 is complete control
How it was run: as §2

[14] = test system: corn; assay: Test B pre/postemergence corn; type: in vivo, Zea mays; settings: for Corn plant response rating: scale of 0 to 10 where 0 is no effect and 10 is complete control
How it was run: as §2

[15] = test system: soybean; assay: Test B pre/postemergence soybean; type: in vivo, Glycine max; settings: for Soybean plant response rating: scale of 0 to 10 where 0 is no effect and 10 is complete control
How it was run: as §2

[16] = Postemergence (flood test), Rate 125 g/ha, scale 0 to 10, 0 is no effect, 10 is complete control
[17] = Rate 62 g/ha, Postemergence (flood test species), scale of 0 to 10 where 0 is no effect and 10 is complete control
[18] = Rate 62 g/ha, flood test species, Pre-emergence, visual evaluation after twelve to sixteen days
[19] = Rate 125 g/ha, Pre-emergence, flood test species, scale 0 to 10 where 0 is no effect and 10 is complete control
[20] = Rate 250 g/ha, Pre-emergence, flood-test species, scale 0 to 10, 0 is no effect, 10 is complete control
[21] = Rate 500 g/ha, listed under Postemergence (flood test species), scale 0 to 10, 0 no effect, 10 complete control
[22] = Rate 500 g/ha, Pre-emergence, flood test species, scale 0 to 10 (0 no effect, 10 complete control)
[23] = flood test species, listed under Postemergence, Rate 250 g/ha, scale 0 to 10, 0 is no effect, 10 is complete control
[24] = Postemergence, Rate 125 g/ha, scale 0 to 10, 0 is no effect, 10 is complete control
[25] = Postemergence, Rate 250 g/ha, scale 0 to 10, 0 is no effect, 10 is complete control
[26] = Preemergence, Rate 62 g/ha, scale 0 to 10 (0 no effect, 10 complete control)
[27] = Rate 500 g/ha, Postemergence, scale 0 to 10, 0 no effect, 10 complete control

CC1CC1n1c(=O)on(C(=O)N(c2ccc(Cl)cc2)C(C)C)c1=O (stereo not drawn) [Compound 369]
Plant response rating, Rice [1, 16]: 0
Rice plant response rating [1, 17]: 0
Plant response rating, Rice (0 to 10 scale, 0 is no effect, 10 is complete control) [1, 18]: 0
Rice plant response rating [1, 19]: 0
Rice plant response rating [1, 20]: 0
Plant response rating, Rice [1, 21]: 0
Rice plant response rating [1, 22]: 0
Plant response rating, Rice [1, 23]: 0
Plant response rating, Blackgrass [2, 24]: 0
Plant response rating, Blackgrass [2, 25]: 5
Plant response rating, Blackgrass [2, 26]: 0
Blackgrass plant response rating (0 to 10 scale) ([2]; Preemergence, Rate 125 g/ha): 0
Blackgrass plant response rating ([2]; Preemergence, Rate 250 g/ha): 2
Blackgrass plant response rating ([2]; Preemergence, Rate 500 g/ha): 5
Blackgrass plant response rating ([2]; Rate 62 g/ha, Postemergence): 0
Plant response rating, Blackgrass [2, 27]: 5
Plant response rating, Nutsedge [3, 24]: 0
Plant response rating, Nutsedge [3, 25]: 0
Plant response rating, Nutsedge [3, 26]: 0
Nutsedge plant response rating (0 to 10 scale) ([3]; Preemergence, Rate 125 g/ha): 0
Nutsedge plant response rating ([3]; Preemergence, Rate 250 g/ha): 0
Nutsedge plant response rating ([3]; Preemergence, Rate 500 g/ha): 5
Nutsedge plant response rating ([3]; Rate 62 g/ha, Postemergence): 0
Plant response rating, Nutsedge [3, 27]: 3
Plant response rating, Crabgrass [4, 24]: 0
Plant response rating, Crabgrass [4, 25]: 2
Plant response rating, Crabgrass [4, 26]: 5
Crabgrass plant response rating (0 to 10 scale) ([4]; Preemergence, Rate 125 g/ha): 7
Crabgrass plant response rating ([4]; Preemergence, Rate 250 g/ha): 9
Crabgrass plant response rating ([4]; Preemergence, Rate 500 g/ha): 10
Crabgrass plant response rating ([4]; Rate 62 g/ha, Postemergence): 0
Plant response rating, Crabgrass [4, 27]: 9
Plant response rating, Barnyardgrass [5, 16]: 0
Barnyardgrass plant response rating [5, 17]: 0
Plant response rating, Barnyardgrass (0 to 10 scale, 0 is no effect, 10 is complete control) [5, 18]: 0
Barnyardgrass plant response rating [5, 19]: 0
Barnyardgrass plant response rating [5, 20]: 0
Plant response rating, Barnyardgrass [5, 21]: 2
Barnyardgrass plant response rating [5, 22]: 0
Plant response rating, Barnyardgrass [5, 23]: 0
Plant response rating, Velvetleaf [6, 24]: 0
Plant response rating, Velvetleaf [6, 25]: 0
Plant response rating, Velvetleaf [6, 26]: 0
Velvetleaf plant response rating (0 to 10 scale) ([6]; Preemergence, Rate 125 g/ha): 0
Velvetleaf plant response rating ([6]; Preemergence, Rate 250 g/ha): 0
Velvetleaf plant response rating ([6]; Preemergence, Rate 500 g/ha): 6
Velvetleaf plant response rating ([6]; Rate 62 g/ha, Postemergence): 0
Plant response rating, Velvetleaf [6, 27]: 3
Plant response rating, B. signalgrass [7, 24]: 0
Plant response rating, B. signalgrass [7, 25]: 0
Plant response rating, B. signalgrass [7, 26]: 0
B. signalgrass plant response rating (0 to 10 scale, 0 is no effect, 10 is complete control) ([7]; Preemergence, Rate 125 g/ha): 0
B. signalgrass plant response rating ([7]; Preemergence, Rate 250 g/ha): 2
B. signalgrass plant response rating ([7]; Preemergence, Rate 500 g/ha): 2
B. signalgrass plant response rating ([7]; Rate 62 g/ha, Postemergence): 0
Plant response rating, B. signalgrass [7, 27]: 3
Plant response rating, S. Flatsedge [8, 16]: 2
S. Flatsedge plant response rating [8, 17]: 0
Plant response rating, S. Flatsedge (0 to 10 scale, 0 is no effect, 10 is complete control) [8, 18]: 0
S. Flatsedge plant response rating [8, 19]: 0
S. Flatsedge plant response rating [8, 20]: 0
Plant response rating, S. Flatsedge [8, 21]: 4
S. Flatsedge plant response rating [8, 22]: 0
Plant response rating, S. Flatsedge [8, 23]: 2
Plant response rating, Giant foxtail [9, 24]: 0
Plant response rating, Giant foxtail [9, 25]: 2
Plant response rating, Giant foxtail [9, 26]: 8
Giant foxtail plant response rating (0 to 10 scale) ([9]; Preemergence, Rate 125 g/ha): 9
Giant foxtail plant response rating ([9]; Preemergence, Rate 250 g/ha): 10
Giant foxtail plant response rating ([9]; Preemergence, Rate 500 g/ha): 10
Giant foxtail plant response rating ([9]; Rate 62 g/ha, Postemergence): 0
Plant response rating, Giant foxtail [9, 27]: 9
Plant response rating, Sugarbeets [10, 24]: 0
Plant response rating, Sugarbeets [10, 25]: 0
Plant response rating, Sugarbeets [10, 26]: 0
Sugarbeets plant response rating (0 to 10 scale) ([10]; Preemergence, Rate 125 g/ha): 0
Sugarbeets plant response rating ([10]; Preemergence, Rate 250 g/ha): 2
Sugarbeets plant response rating ([10]; Preemergence, Rate 500 g/ha): 4
Sugarbeets plant response rating ([10]; Rate 62 g/ha, Postemergence): 0
Plant response rating, Sugarbeets [10, 27]: 2
Plant response rating, Wild oats [11, 24]: 0
Plant response rating, Wild oats [11, 25]: 0
Plant response rating, Wild oats [11, 26]: 0
Wild oats plant response rating (0 to 10 scale) ([11]; Preemergence, Rate 125 g/ha): 0
Wild oats plant response rating ([11]; Preemergence, Rate 250 g/ha): 0
Wild oats plant response rating ([11]; Preemergence, Rate 500 g/ha): 7
Wild oats plant response rating ([11]; Rate 62 g/ha, Postemergence): 0
Plant response rating, Wild oats [11, 27]: 4
Plant response rating, Cocklebur [12, 24]: 0
Plant response rating, Cocklebur [12, 25]: 0
Plant response rating, Cocklebur [12, 26]: 0
Cocklebur plant response rating (0 to 10 scale) ([12]; Preemergence, Rate 125 g/ha): 0
Cocklebur plant response rating ([12]; Preemergence, Rate 250 g/ha): 0
Cocklebur plant response rating ([12]; Preemergence, Rate 500 g/ha): 0
Cocklebur plant response rating ([12]; Rate 62 g/ha, Postemergence): 0
Plant response rating, Cocklebur [12, 27]: 0
Plant response rating, Redroot pigweed [13, 24]: 0
Plant response rating, Redroot pigweed [13, 25]: 0
Plant response rating, Redroot pigweed [13, 26]: 0
Redroot pigweed plant response rating (0 to 10 scale) ([13]; Preemergence, Rate 125 g/ha): 4
Redroot pigweed plant response rating ([13]; Preemergence, Rate 250 g/ha): 10
Redroot pigweed plant response rating ([13]; Preemergence, Rate 500 g/ha): 10
Redroot pigweed plant response rating ([13]; Rate 62 g/ha, Postemergence): 0
Plant response rating, Redroot pigweed [13, 27]: 4
Plant response rating, Corn [14, 24]: 0
Plant response rating, Corn [14, 25]: 0
Plant response rating, Corn [14, 26]: 0
Corn plant response rating (0 to 10 scale) ([14]; Preemergence, Rate 125 g/ha): 0
Corn plant response rating ([14]; Preemergence, Rate 250 g/ha): 0
Corn plant response rating ([14]; Preemergence, Rate 500 g/ha): 0
Corn plant response rating ([14]; Rate 62 g/ha, Postemergence): 0
Plant response rating, Corn [14, 27]: 0
Plant response rating, Soybean [15, 24]: 0
Plant response rating, Soybean [15, 25]: 1
Plant response rating, Soybean [15, 26]: 0
Soybean plant response rating (0 to 10 scale) ([15]; Preemergence, Rate 125 g/ha): 0
Soybean plant response rating ([15]; Preemergence, Rate 250 g/ha): 0
Soybean plant response rating ([15]; Preemergence, Rate 500 g/ha): 4
Soybean plant response rating ([15]; Rate 62 g/ha, Postemergence): 0
Plant response rating, Soybean [15, 27]: 1
